Values quoted from earlier work, collected in paper PMC12284023, “Metabolomic and chemometric profiling of crimson grapes during drying and its impact on antidiabetic activity” (NPJ Science of Food, 2025).
In brackets after ≈: the same amount, converted by molar mass.

Tests used:
[1] = tested on: glycation products such as 5-hydroxymethylfurfural, fructosamine, and advanced glycation end products; parameters: method as in ref 58 = [58]; 58. Ding H Blood glucose-lowering activity of protocatechuic acid is mediated by inhibiting α-glucosidase Food Sci. Hum. Wellness 2024 13 1212 1219 Ding, H. et al. Blood glucose-lowering activity of p; conditions: advanced glycation end products ref 58
[2] = tested on: streptozotocin-injected rat; parameters: method as in PMID 32446112; conditions: via suppressing uric acid, plasma glucose, triglyceride, total cholesterol, creatinine, IL-6, TNF-α, MCP-1 levels ref 60
pancreatic lipase = molecular target: pancreatic lipase; parameters: method as in PMID 26284613; conditions: in vitro, dose-dependent ref 61
α-glucosidase enzyme = molecular target: α-glucosidase enzyme; parameters: method as in ref 56 = [56]; 56. Cásedas G Cyanidin-3-O-glucoside inhibits different enzymes involved in central nervous system pathologies and type-2 diabetes South Afr. J. Bot. 2019 120 241 246 Cásedas, G. et al. Cyanidin-3-O-g; conditions: read-out: IC50 against α-glucosidase enzyme
[3] = tested on: streptozotocin-induced diabetic mouse; parameters: method as in ref 57 = [57]; 57. Choi K Choi S-I Park MH Han J-S Cyanidin-3-O-glucoside ameliorates postprandial hyperglycemia in diabetic mice J. Life Sci. 2017 27 32 37 Choi, K., Choi, S.-I., Park, M. H. & Han, J.-S. Cyanidin-3; conditions: oral administration of soluble starch with compound, streptozotocin-induced diabetic mouse ref 57
diabetic mice = tested on: diabetic mice; parameters: method as in ref 58 = [58]; 58. Ding H Blood glucose-lowering activity of protocatechuic acid is mediated by inhibiting α-glucosidase Food Sci. Hum. Wellness 2024 13 1212 1219 Ding, H. et al. Blood glucose-lowering activity of p; conditions: diabetic mice ref 58
[4] = tested on: streptozotocin-induced diabetic rats; parameters: method as in PMID 35932369; conditions: streptozotocin-induced diabetic rats ref 62

O=C(O)[C@H]1O[C@@H](Oc2c(-c3ccc(O)c(O)c3)oc3cc(O)cc(O)c3c2=O)[C@H](O)[C@@H](O)[C@@H]1O [quercetin-3-O-glucuronide, Quercetin-3-O-glucuronide]
suppression of glycation products [1]: effectively suppressed

CC(C)[C@@H](C)/C=C/[C@@H](C)[C@H]1CC[C@H]2C3=CC=C4C[C@@H](O)CC[C@]4(C)[C@H]3CC[C@]12C [ergosterol, Ergosterol]
diabetic nephropathy [2]: attenuated diabetic nephropathy

O=c1ccc2cc(O[C@@H]3O[C@H](CO)[C@@H](O)[C@H](O)[C@H]3O)c(O)cc2o1 [Esculin]
IC50 pancreatic lipase inhibition (pancreatic lipase): 11.6 ± 0.92 µg/mL (≈ 34.1 µM)

OC[C@H]1O[C@@H](Oc2cc3c(O)cc(O)cc3[o+]c2-c2ccc(O)c(O)c2)[C@H](O)[C@@H](O)[C@@H]1O [Cyanidin-3-O-glucoside]
IC50 (α-glucosidase enzyme): 480 µM | levels of postprandial blood glucose [3]: significantly decreased

O=C(O)c1ccc(O)c(O)c1 [protocatechuic acid]
postprandial hypoglycemic activity (diabetic mice): acclaimed postprandial hypoglycemic activity

CC(C)(C)[C@]1(O)CC2OC(=O)CC23C(=O)OC2OC(=O)[C@H](O)C231 (some centres unmarked) [bilobalide, Bilobalide]
anti-retinopathy activity [4]: exhibited anti-retinopathy activity | blood glucose levels [4]: decreased blood glucose levels
